This note sets out measurements from US12655150B2 (Cedilla Therapeutics, Inc., priority 2021, dated 2026).

The test system of this assay is NCI-H226. Briefly: 72H TEAD Proliferation Assay (Cell Titer Glo 2.0). Type of assay: cell-based. Particulars: Homo sapiens, NCI-H226, 72 h, CTG 2.0, cell line not given (NCI-H226 responsive, NCI-H28 non-responsive). How it is done:
72H TEAD Proliferation Assay.
The effect of TEAD inhibition on cell proliferation was assayed using Cell Titer Glo (CTG) 2.0 to measure response in mesothelioma cell lines NCI-H226 (ATCC, #CRL-5826) and NCI-H28 (ATCC, #CRL-5820).
The 72H TEAD Proliferation assay utilizes Cell Titer-Glo 2.0 (Promega, #G9243) to measure the proliferation of cells in the presence or absence of compound. Cell Titer-Glo 2.0 determines the amount of viable cells by quantifying ATP (an indication of metabolically active cells). It utilizes the conversion of Luciferin to Oxyluciferin and a luminescent signal with the use of ATP to report the quantity of viable cells in culture. Within cells that are continually growing, ATP is being synthesized to meet their metabolic demands, meanwhile the opposite is true for cells that are dying or slowing down their proliferation and either no longer using ATP or are using less, respectively. The NF2-deficient NCI-H226 has been genetically validated as a cell line that is sensitive to TEAD inhibition. The NF2-wild type NCI-H28 has been genetically validated as a cell line that is not sensitive to TEAD inhibition and grows independently of TEAD activity.
Compounds were screened against the responsive NCI-H226 cell line to assess the compounds' ability to inhibit TEAD and cell growth. Compounds were also screened against the non-responsive NCI-H28 cell line to ascertain whether the inhibition of cell growth was due to inhibition of the target TEAD or whether the inhibition was due to off-target cytotoxicity.
• 1) Assay ready plates (ARPs) were prepared by Echo acoustic liquid handler. […] After CTG addition, plates were placed on shaker at 800 RPM for 15 minutes at room temperature and kept in the dark. Luminescence was measured using EnVision multilabel plate reader with ultra-sensitive detection module. • 9) Data Analysis: First background luminescence (no CTG wells) was subtracted from luminescence reading of all wells, then TO luminescence was subtracted from T72 luminescence. To compare anti-proliferative effect of compounds, GI50 was obtained by fitting dose response curves with nonlinear regression curve fit.
(In general: ATP-based viability assays read luminescence as a measure of living cells.)

`O=C(O)c1ccc2c(c1)nc(N1CCC3(CCCCC3)CC1)c1cccn12` [I-30, 4-(3-Azaspiro[5.5]undecan-3-yl)pyrrolo[1,2-a]quinoxaline-7-carboxylic acid]: the GI50 (in general, the concentration at which growth is held to half of that of the control) lay within 1 to 5 µM. The compound `CC1(C)C2CN(c3nc4cc(C(=O)O)ccc4n4cccc34)CC21` (stereo not drawn) [I-31, 4-(6,6-Dimethyl-3-azabicyclo[3.1.0]hexan-3-yl)pyrrolo[1,2-a]quinoxaline-7-carboxylic acid] gave a GI50 greater than 10 µM. For `O=C(O)c1ccc2c(c1)nc(N1CCC3(CC1)CC(F)(F)C3)c1cccn12` [I-32, 4-(2,2-Difluoro-7-azaspiro [3.5]nonan-7-yl) pyrrolo[1,2-a] quinoxaline-7-carboxylic acid], the GI50 lay in the range of 1 to 5 µM.

Take `O=C(O)c1ccc2c(c1)nc(N1CCC3(CCC3)C1)c1cccn12` [I-33, 4-(6-Azaspiro[3.4]octan-6-yl)pyrrolo[1,2-a]quinoxaline-7-carboxylic acid]: the GI50 was 5 to 10 µM. For the compound `CC1(C)CC2(CCN(c3nc4cc(C(=O)O)ccc4n4cccc34)CC2)CO1` [I-34, 4-(3,3-Dimethyl-2-oxa-8-azaspiro [4.5]decan-8-yl) pyrrolo[1,2-a] quinoxaline-7-carboxylic acid], the concentration for 50% growth inhibition (GI50) is greater than 10 µM. `O=C(O)c1ccc2c(c1)nc(N1CCC3(CCOC3)CC1)c1cccn12` [I-35, 4-(2-Oxa-8-azaspiro[4.5]decan-8-yl)pyrrolo[1,2-a]quinoxaline-7-carboxylic acid] registered a GI50 of 1 to 5 µM. `O=C(O)c1ccc2c(c1)nc(N1CCC3(CC1)CC3(F)F)c1cccn12` [I-36, 4-(1,1-Difluoro-6-azaspiro[2.5]octan-6-yl)pyrrolo[1,2-a]quinoxaline-7-carboxylic acid] yielded a GI50 of no more than 1 µM. Under `CC(C)(C)C1CCN(c2nc3cc(C(=O)O)ccc3n3cccc23)CC1` [I-37, 4-(4-(tert-Butyl)piperidin-1-yl)pyrrolo[1,2-a]quinoxaline-7-carboxylic acid] stands greater than 10 µM; under `O=C(O)c1ccc2c(c1)nc(N1CCC(C(F)(F)F)CC1)c1cccn12` [I-38, 4-(4-(Trifluoromethyl)piperidin-1-yl)pyrrolo[1,2-a]quinoxaline-7-carboxylic acid], greater than 10 µM; under `O=C(O)c1ccc2c(c1)nc(N1CCC(F)(F)CC1)c1cccn12` [I-39, 4-(4,4-Difluoropiperidin-1-yl) pyrrolo[1,2-a]quinoxaline-7-carboxylic acid], greater than 10 µM. `O=C(O)c1ccc2c(c1)nc(N1CCN(C3CC3)CC1)c1cccn12` [I-40, 4-(4-Cyclopropylpiperazin-1-yl) pyrrolo[1,2-a]quinoxaline-7-carboxylic acid] gave a GI50 of 1 to 5 µM. The compound `O=C(O)c1ccc2c(c1)nc(-c1ccc(C(F)(F)F)cc1)c1cccn12` [I-42, 4-(4-(Trifluoromethyl)phenyl)pyrrolo[1,2-a]quinoxaline-7-carboxylic acid] displayed a GI50 of no more than 1 µM. Compound `O=C(O)c1ccc2c(c1)nc(-c1ccc(F)cc1)c1cccn12` [I-43, 4-(4-Fluorophenyl)pyrrolo[1,2-a]quinoxaline-7-carboxylic acid] returned a GI50 greater than 10 µM. Turning to `O=C(O)c1ccc2c(c1)nc(-c1ccc(F)cc1F)c1cccn12` [I-44, 4-(2,4-Difluorophenyl)pyrrolo[1,2-a]quinoxaline-7-carboxylic acid], the GI50 was greater than 10 µM. For `Cc1ccc(-c2nc3cc(C(=O)O)ccc3n3cccc23)cc1` [I-45, 4-(p-Tolyl)pyrrolo[1,2-a]quinoxaline-7-carboxylic acid] the value was greater than 10 µM; for `COc1ccc(-c2nc3cc(C(=O)O)ccc3n3cccc23)cc1` [I-46, 4-(4-Methoxyphenyl)pyrrolo[1,2-a]quinoxaline-7-carboxylic acid], greater than 10 µM; for `O=C(O)c1ccc2c(c1)nc(-c1ccncc1)c1cccn12` [I-47, 4-(Pyridin-4-yl)pyrrolo[1,2-a]quinoxaline-7-carboxylic acid], greater than 10 µM. `O=C(O)c1ccc2c(c1)nc(-c1ccc(Cl)cc1)c1cccn12` [I-48, 4-(4-Chlorophenyl)pyrrolo[1,2-a]quinoxaline-7-carboxylic acid]: the GI50 was greater than 10 µM.

Turning to `CC(C)(C)c1ccc(-c2nc3cc(C(=O)O)ccc3n3cccc23)c(F)c1` [I-49, 4-(4-(tert-Butyl)-2-fluorophenyl)pyrrolo[1,2-a]quinoxaline-7-carboxylic acid], the GI50 was greater than 10 µM. Under `O=C(O)c1ccc2c(c1)nc(-c1ccc(C(F)(F)F)cc1F)c1cccn12` [I-50, 4-(2-fluoro-4-(trifluoromethyl)phenyl) pyrrolo[1,2-a] quinoxaline-7-carboxylic acid] stands no more than 1 µM; under `O=C(O)c1ccc2c(c1)nc(-c1ccc(C(F)(F)F)nc1)c1cccn12` [I-51, 4-(6-(Trifluoromethyl)pyridin-3-yl)pyrrolo[1,2-a]quinoxaline-7-carboxylic acid], 1 to 5 µM.

Regarding `Cc1cc(C(F)(F)F)ccc1-c1nc2cc(C(=O)O)ccc2n2cccc12` [I-52, 4-(2-Methyl-4-(trifluoromethyl)phenyl)pyrrolo[1,2-a]quinoxaline-7-carboxylic acid], the GI50 was in the range of 1 to 5 µM.

Regarding `O=C(O)c1ccc2c(c1)nc(-c1ccc(C(F)(F)F)cc1Cl)c1cccn12` [I-53, 4-(2-Chloro-4-(trifluoromethyl)phenyl)pyrrolo[1,2-a]quinoxaline-7-carboxylic acid], the concentration for 50% growth inhibition (GI50) was 1 to 5 µM. For `N#Cc1cc(C(F)(F)F)ccc1-c1nc2cc(C(=O)O)ccc2n2cccc12` [I-54, 4-(2-Cyano-4-(trifluoromethyl)phenyl)pyrrolo[1,2-a]quinoxaline-7-carboxylic acid] the value was 5 to 10 µM; for `COc1cc(C(F)(F)F)ccc1-c1nc2cc(C(=O)O)ccc2n2cccc12` [I-55, 4-(2-Methoxy-4-(trifluoromethyl)phenyl)pyrrolo[1,2-a]quinoxaline-7-carboxylic acid], 5 to 10 µM. Compound `O=C(O)c1ccc2c(c1)nc(N1CCC3(CC1)CC3)c1nccn12` [I-56, 4-(6-Azaspiro[2.5]octan-6-yl)imidazo[1,2-a]quinoxaline-7-carboxylic acid] returned a GI50 greater than 10 µM. Turning to `O=C(O)c1ccc2c(c1)nc(N1CCC3(CCCC3)CC1)c1nccn12` [I-57, 4-(8-Azaspiro[4.5]decan-8-yl)imidazo[1,2-a]quinoxaline-7-carboxylic acid], the GI50 was greater than 10 µM.

In turn, `CC(C)(C)c1ccc(-c2nc3cc(C(=O)O)ccc3n3ccnc23)cc1` [I-58, 4-(4-(tert-Butyl)phenyl)imidazo[1,2-a]quinoxaline-7-carboxylic acid] registered a GI50 of 5 to 10 µM. Regarding `CC(C)(C)c1ccc(-c2nc3cc(C(=O)O)ccc3n3ccnc23)c(F)c1` [I-59, 4-(4-(tert-Butyl)-2-fluorophenyl)imidazo[1,2-a]quinoxaline-7-carboxylic acid], the GI50 is 1 to 5 µM. Take `O=C(O)c1ccc2c(c1)nc(-c1ccc(C(F)(F)F)cc1F)c1nccn12` [I-60, 4-(2-Fluoro-4-(trifluoromethyl)phenyl)imidazo[1,2-a]quinoxaline-7-carboxylic acid]: the concentration for 50% growth inhibition (GI50) lay within 1 to 5 µM. Under `O=C(O)c1ccc2c(c1)nc(-c1ccc(C(F)(F)F)cc1)c1nccn12` [I-61, 4-(4-(Trifluoromethyl)phenyl)imidazo[1,2-a]quinoxaline-7-carboxylic acid] stands 1 to 5 µM; under `O=C(O)c1ccc2c(c1)nc(-c1ccc(C3CCCCC3)cc1)c1nccn12` [I-62, 4-(4-Cyclohexylphenyl)imidazo[1,2-a]quinoxaline-7-carboxylic acid], greater than 10 µM; under `O=C(O)c1ccc2c(c1)nc(-c1ccccc1)c1nccn12` [I-63, 4-Phenylimidazo[1,2-a]quinoxaline-7-carboxylic acid], greater than 10 µM. As to `COc1ccc(-c2nc3cc(C(=O)O)ccc3n3ccnc23)cc1` [I-64, 4-(4-Methoxyphenyl)imidazo[1,2-a]quinoxaline-7-carboxylic acid], the GI50 is greater than 10 µM. For `CC(C)(C)c1cccc(-c2nc3cc(C(=O)O)ccc3n3ccnc23)c1` [I-65, 4-(3-(tert-Butyl)phenyl)imidazo[1,2-a]quinoxaline-7-carboxylic acid] the value was greater than 10 µM; for `Cc1ccc(-c2nc3cc(C(=O)O)ccc3n3ccnc23)cc1` [I-66, 4-(p-Tolyl)imidazo[1,2-a]quinoxaline-7-carboxylic acid], 5 to 10 µM. Consider `O=C(O)c1ccc2c(c1)nc(-c1ccc(C3(C(F)(F)F)CC3)cc1)c1nccn12` [I-67, 4-(4-(1-(Trifluoromethyl)cyclopropyl)phenyl)imidazo[1,2-a]quinoxaline-7-carboxylic acid], for which the GI50 is greater than 10 µM. Consider `O=C(O)c1ccc2c(c1)nc(C1CCCCC1)c1nccn12` [I-68, 4-Cyclohexylimidazo[1,2-a]quinoxaline-7-carboxylic acid], for which the GI50 was greater than 10 µM.

Take `O=C(O)c1ccc2c(c1)nc(C1CCOCC1)c1nccn12` [I-69, 4-(Tetrahydro-2H-pyran-4-yl)imidazo[1,2-a]quinoxaline-7-carboxylic acid]: the GI50 is greater than 10 µM.
